Assay results: US10729706B2, “Psilocybin and/or psilocin in combination with cannabinoids and/or terpenes” (Procare Beheer B.V., priority 2017, dated 2020)

Tests used:
[1] = tested on: subjects with Alzheimer's disease; assay: 48-day daily oral treatment, subjects diagnosed with Alzheimer's disease; type: in vivo; settings: 10 subjects with Alzheimer's disease, 48-day treatment, 30 mg of each active
Experimental: (§1) In a 48-day treatment, 50 subjects suffering from diverse medical conditions receive a daily oral dose with either • pure psilocybin (30 mg); • pure cannabidiol (30 mg); or • combined treatment of pure psilocybin (30 mg)+pure cannabidiol (30 mg).

subjects with Depression = assay: 48-day daily oral treatment, subjects diagnosed with depression; type: in vivo; settings: 14 subjects with depression, 48-day treatment, 30 mg of each active
Experimental: as §1

subjects with Dementia = assay: 48-day daily oral treatment, subjects diagnosed with dementia; type: in vivo; settings: 10 subjects with dementia, 48-day treatment, 30 mg of each active
Experimental: as §1

[2] = tested on: subjects with Schizophrenia; assay: 48-day daily oral treatment, subjects diagnosed with schizophrenia; type: in vivo; settings: 2 subjects with schizophrenia, 48-day treatment, 30 mg of each active, decrease
Experimental: as §1

[3] = tested on: subjects with Panic disorder; assay: 48-day daily oral treatment, subjects diagnosed with panic disorder; type: in vivo; settings: 2 subjects with panic disorder; 48-day treatment, daily oral dose 30 mg; increase
Experimental: as §1

[4] = tested on: subjects with Psychotic disorder; assay: 48-day daily oral treatment, subjects diagnosed with psychotic disorder; type: in vivo; settings: 3 subjects with psychotic disorder; 48-day treatment, daily oral dose 30 mg; increase
Experimental: as §1

[5] = tested on: subjects with Anxiety disorder; assay: 48-day daily oral treatment, subjects diagnosed with anxiety disorder; type: in vivo; settings: 4 subjects with anxiety disorder; 48-day treatment, daily oral dose 30 mg; increase
Experimental: as §1

[6] = tested on: subjects with Parkinson's disease; assay: 48-day daily oral treatment, subjects diagnosed with Parkinson's disease; type: in vivo; settings: 4 subjects with Parkinson's disease, 48-day treatment, 30 mg of each active
Experimental: as §1

[7] = tested on: subjects with Huntington's disease; assay: 48-day daily oral treatment, subject diagnosed with Huntington's disease; type: in vivo; settings: 1 subject with Huntington's disease, 48-day treatment, 30 mg of each active
Experimental: as §1

[8] = general statement in description; cited from earlier work

Structure (SMILES)	progression of disease symptoms during treatment [1]	subjects report improved mood after period of treatment (subjects with Depression)	progression of disease symptoms during treatment (subjects with Dementia)	decreased occurrence of schizophrenic episodes during period of treatment, on average [2]	Increased occurrence of panic attacks during period of treatment, on average [3]	increased occurrence of psychotic episodes during period of treatment, on average [4]	increased occurrence of anxiety attacks during period of treatment, on average [5]	progression of movement disorders during treatment [6]	progression of movement, cognitive, and psychiatric disorders during treatment [7]	toxicity [8]
C=C(C)[C@@H]1CCC(C)=C[C@H]1c1c(O)cc(CCCCC)cc1O [cannabidiol]	normal progression	5 subjects report	normal progression	on average, 50%	on average, 40%	on average, 10%	on average, 40%	normal progression	normal progression	–
CN(C)CCc1c[nH]c2cccc(OP(=O)(O)O)c12 [psilocybin, [3-(2-dimethylaminoethyl)-1H-indol-4-yl] dihydrogen phosphate]	–	6 subjects report	–	on average, 0%	on average, 50%	on average, 20%	on average, 50%	–	–	low toxicity
